Measurements: US9173394B2, “Active agent combinations having insecticidal and acaricidal properties” (BAYER INTELLECTUAL PROPERTY GMBH, priority 2007, dated 2015)
Read-outs that look alike come from different tables or passages of the source.

Legend:
[1] = system: Phaedon cochleariae; assay: Phaedon cochleariae larvae test (Example B): sprayed cabbage leaves populated with mustard beetle larvae; conditions: for pest or weed control at 100 g/ha / pest or weed control at 0.8 g/ha / pest or weed control at 20 g/ha / pest or weed control at 0.16 g/ha / pest or weed control at 4 g/ha: Phaedon cochleariae, in Brassica oleracea, 144 h
[2] = system: Myzus persicae; assay: Myzus persicae test (Example A): spray treatment of infested cabbage leaves; format: in vivo
Excerpt: (§1) Solvent: 78 parts by weight of acetone

[3] = system: Spodoptera frugiperda; assay: Spodoptera frugiperda larvae test (Example C): sprayed cabbage leaves populated with army worm larvae; format: in vivo; conditions: for Destruction in % after 6 d: Table C second series
Excerpt: as §1

[4] = system: Tetranychus urticae; assay: Tetranychus urticae test (OP-resistant/spray treatment) (Example D): infested bean leaf discs; format: in vivo
Method: as §1
Bean leaf discs (Phaseolus vulgaris) which are infested with all stages of the red spider mite (Tetranychus urticae) are sprayed with an active substance preparation of the desired concentration.
After the desired period of time, the effect is determined in %.

[5] = read-out: Destruction in % after 6 d, 100 g/ha, after 6 d, Table B fourth series
[6] = Myzus persicae, 24 h, read-out: Destruction in % after 1 d
[7] = Myzus persicae, 144 h, read-out: Destruction in % after 6 d
[8] = 20 g/ha, after 6 d, Table B second series
[9] = read-out: Destruction in % after 6 d
[10] = Myzus persicae, 144 h, single active substance, 0.8 g/ha, after 6 d, read-out: Destruction in % after 6 d
[11] = read-out: Destruction in % after 6 d, 0.8 g/ha, after 6 d, Table B second series
[12] = read-out: Destruction in % after 6 d, 100 g/ha, after 6 d, Table B second series (r19-r78)
[13] = single active substance, 0.16 g/ha, after 1 d
[14] = read-out: Destruction in % after 6 d, 4 g/ha, after 6 d, Table B second series

Compound: CC1=NNC(=O)N(/N=C/c2cccnc2)C1 [Pymetrozine, pymetrozine]
- pest or weed control at 100 g/ha [1, 5]: 0%
- pest or weed control at 0.16 g/ha [2, 6]: 0%
- pest or weed control at 0.8 g/ha [2, 7]: 50%

Compound: N#Cc1nn(-c2c(Cl)cc(C(F)(F)F)cc2Cl)c(N)c1[S+]([O-])C(F)(F)F (stereo not shown) [Fipronil, fipronil]
- pest or weed control at 20 g/ha [2, 6]: 30%
- pest or weed control at 0.8 g/ha [2, 7]: 0%
- Destruction in % after 6 d ([3]; 0.8 g/ha): 17%

Compound: O=C1C=C(N(CCF)Cc2ccc(Cl)nc2)CO1 [Compound (I-4), 4-{[(6-chloropyrid-3-yl)methyl](2-fluoroethyl)amino}furan-2(5H)-one]
- Destruction in % after 2 d ([4]; 0.8 g/ha): 0%
- Destruction in % after 2 d ([4]; 4 g/ha): 0%
- Destruction in % after 6 d ([4]; 4 g/ha): 0%
- Destruction in % after 2 d ([4]; 20 g/ha): 0%
- Destruction in % after 6 d [1, 8]: 0%
- Destruction in % after 2 d ([1]; 100 g/ha, Table B third series): 33%
- pest or weed control at 0.8 g/ha [1, 9]: 0%
- pest or weed control at 20 g/ha [1, 9]: 0%
- pest or weed control at 100 g/ha [1, 9]: 33%
- pest or weed control at 0.8 g/ha ([2]; Myzus persicae, 24 h, single active substance, 0.8 g/ha, after 1 d, read-out: Destruction in % after 1 d): 0%
- pest or weed control at 4 g/ha ([2]; Myzus persicae, 24 h, single active substance, 4 g/ha, after 1 d, read-out: Destruction in % after 1 d): 30%
- pest or weed control at 0.8 g/ha [2, 10]: 0%
- pest or weed control at 4 g/ha ([2]; Myzus persicae, 144 h, single active substance, 4 g/ha, after 6 d, read-out: Destruction in % after 6 d): 60%
- Destruction in % after 6 d ([3]; 0.16 g/ha): 0%
- Destruction in % after 6 d ([3]; 0.8 g/ha): 0%
- Destruction in % after 2 d ([3]; 4 g/ha, Table C third series): 0%
- Destruction in % after 2 d ([3]; 20 g/ha, Table C third series): 0%
- Destruction in % after 6 d ([3]; 100 g/ha): 0%

Compound: CSC(=O)O/C(=C(/C#N)c1ccc(Cl)cc1)c1ccccc1C(F)(F)F [IKA 2002, O-{(E)-2-(4-chlorophenyl)-2-cyano-1-[2-(trifluoromethyl)phenyl]ethenyl}S-methyl thiocarbonate]
- pest or weed control at 20 g/ha [1, 9]: 0%
- pest or weed control at 100 g/ha [1, 9]: 0%

Compound: O=C1C=C(N(Cc2ccc(Cl)nc2)CC(F)F)CO1 [Compound (I-5), 4-{[(6-chloropyrid-3-yl)methyl](2,2-difluoroethyl)amino}furan-2(5H)-one]
- Destruction in % after 2 d ([4]; 0.16 g/ha): 0%
- Destruction in % after 2 d ([4]; 4 g/ha): 0%
- Destruction in % after 6 d ([4]; 4 g/ha): 0%
- Destruction in % after 2 d ([1]; 0.8 g/ha, Table B first series): 0%
- Destruction in % after 6 d ([1]; 20 g/ha, after 6 d, Table B fourth series): 0%
- Destruction in % after 2 d ([1]; 100 g/ha, Table B third series): 50%
- pest or weed control at 0.16 g/ha ([1]; read-out: Destruction in % after 6 d, 0.16 g/ha, after 6 d, Table B second series): 0%
- pest or weed control at 0.8 g/ha [1, 11]: 0%
- pest or weed control at 100 g/ha [1, 5]: 33%
- pest or weed control at 100 g/ha [1, 12]: 0%
- pest or weed control at 0.8 g/ha [2, 6]: 10%
- pest or weed control at 4 g/ha [2, 6]: 70%
- pest or weed control at 0.8 g/ha [2, 7]: 10%
- Destruction in % after 6 d ([3]; 0.16 g/ha): 0%
- Destruction in % after 6 d ([3]; 0.8 g/ha): 0%
- Destruction in % after 2 d ([3]; 4 g/ha, Table C third series): 0%
- Destruction in % after 2 d ([3]; 20 g/ha, Table C third series): 0%
- Destruction in % after 6 d ([3]; 20 g/ha): 0%

Compound: milbemectin
- Destruction in % after 6 d ([4]; 0.16 g/ha): 0%
- Destruction in % after 1 d [2, 13]: 0%

Compound: Nc1nc(N)nc(NC2CC2)n1 [Cyromazine, cyromazine]
- pest or weed control at 20 g/ha ([1]; read-out: Destruction in % after 6 d, 20 g/ha, after 6 d, Table B fourth series (r118-r181)): 0%
- pest or weed control at 100 g/ha [1, 5]: 0%
- pest or weed control at 4 g/ha [2, 6]: 0%

Compound: spinosad
- Destruction in % after 2 d ([4]; 4 g/ha): 20%
- Destruction in % after 6 d ([1]; 0.8 g/ha, after 6 d, Table B fourth series): 50%
- Destruction in % after 6 d ([2]; single active substance, 0.8 g/ha, after 6 d): 0%
- Destruction in % after 2 d ([3]; 0.8 g/ha, Table C third series): 0%

Compound: Cc1nn(C)c(Oc2ccccc2)c1C=NOCc1ccc(C(=O)OC(C)(C)C)cc1 [Fenpyroximate, fenpyroximate]
- Destruction in % after 6 d ([4]; 4 g/ha): 0%
- pest or weed control at 4 g/ha [2, 6]: 0%

Compound: CCOCn1c(-c2ccc(Cl)cc2)c(C#N)c(Br)c1C(F)(F)F [Chlorfenapyr, chlorfenapyr]
- Destruction in % after 2 d ([1]; 100 g/ha, Table B third series): 67%
- pest or weed control at 4 g/ha [2, 6]: 0%
- Destruction in % after 2 d ([3]; 20 g/ha, Table C third series): 33%

Compound: N#CCNC(=O)c1cnccc1C(F)(F)F [Flonicamid, flonicamid]
- pest or weed control at 100 g/ha [1, 12]: 0%
- pest or weed control at 0.8 g/ha [2, 6]: 0%

Compound: N#Cc1ccc(CC(=NNC(=O)Nc2ccc(OC(F)(F)F)cc2)c2cccc(C(F)(F)F)c2)cc1 (mixture of isomers) [Metaflumizone, 2-[2-(4-cyanophenyl)-1-[3-(trifluoromethyl)-phenyl]ethylidene]-N-[4-(trifluoromethoxy)phenyl]hydrazinecarboxamide]
- pest or weed control at 100 g/ha [1, 9]: 0%
- pest or weed control at 0.8 g/ha [2, 10]: 0%
- Destruction in % after 6 d ([3]; 20 g/ha): 0%
- Destruction in % after 6 d ([3]; 100 g/ha): 83%

Compound: CC[S+]([O-])c1c(C#N)nn(-c2c(Cl)cc(C(F)(F)F)cc2Cl)c1N (stereo not shown) [Ethiprole, ethiprole]
- pest or weed control at 0.8 g/ha [1, 11]: 33%
- pest or weed control at 4 g/ha [1, 14]: 67%
- pest or weed control at 4 g/ha [2, 6]: 0%
- pest or weed control at 4 g/ha [2, 7]: 0%

Compound: Cc1nn(C)c(/C(OC(=O)C(C)(C)C)=C(\C#N)c2ccc(C(C)(C)C)cc2)c1C [Cyenopyrafen, (1E)-2-cyano-2-[4-(1,1-dimethylethyl)phenyl]-1-(1,3,4-trimethyl-1H-pyrazol-5-yl)ethenyl 2,2-dimethylpropanoate]
- Destruction in % after 2 d ([4]; 0.16 g/ha): 0%
- Destruction in % after 2 d ([4]; 0.8 g/ha): 50%
- pest or weed control at 100 g/ha [1, 5]: 0%
- pest or weed control at 4 g/ha [2, 6]: 0%

Compound: CN(Cc1cnc(Cl)c(F)c1)C1=CC(=O)OC1 [Compound (I-6), 4-{[(6-chloro-5-fluoropyrid-3-yl)methyl](methyl)amino}furan-2(5H)-one]
- Destruction in % after 2 d ([4]; 0.16 g/ha): 0%
- Destruction in % after 6 d ([4]; 4 g/ha): 0%
- Destruction in % after 2 d ([4]; 20 g/ha): 0%
- Destruction in % after 6 d ([4]; 100 g/ha): 50%
- Destruction in % after 2 d ([1]; 0.8 g/ha, Table B first series): 0%
- Destruction in % after 6 d [1, 8]: 0%
- Destruction in % after 2 d ([1]; 100 g/ha, Table B third series): 33%
- pest or weed control at 0.16 g/ha [1, 9]: 0%
- pest or weed control at 0.8 g/ha [1, 9]: 0%
- pest or weed control at 4 g/ha [1, 9]: 0%
- pest or weed control at 20 g/ha [1, 9]: 0%
- pest or weed control at 0.16 g/ha ([2]; Myzus persicae, 24 h, single active substance, 0.16 g/ha, after 1 d, read-out: Destruction in % after 1 d): 0%
- pest or weed control at 0.16 g/ha ([2]; Myzus persicae, 144 h, single active substance, 0.16 g/ha, after 6 d, read-out: Destruction in % after 6 d): 0%
- pest or weed control at 0.8 g/ha [2, 10]: 70%
- Destruction in % after 6 d ([3]; 0.8 g/ha): 0%
- Destruction in % after 2 d ([3]; 4 g/ha, Table C third series): 0%
- Destruction in % after 2 d ([3]; 20 g/ha, Table C first series): 0%
- Destruction in % after 2 d ([3]; 20 g/ha, Table C third series): 0%
- Destruction in % after 6 d ([3]; 20 g/ha): 0%

Compound: abamectin
- Destruction in % after 2 d ([4]; 0.0064 g/ha): 50%
- Destruction in % after 2 d ([1]; 4 g/ha, Table B third series): 67%
- Destruction in % after 1 d [2, 13]: 0%

Compound: emamectin-benzoate
- Destruction in % after 2 d ([1]; 0.032 g/ha, Table B first series): 0%
- Destruction in % after 1 d [2, 13]: 0%
- Destruction in % after 2 d ([3]; 0.8 g/ha, Table C first series): 50%

Compound: CNC(=O)c1cc(Cl)cc(C)c1NC(=O)c1cc(Br)nn1-c1ncccc1Cl [Rynaxapyr, 3-bromo-N-{4-chloro-2-methyl-6-[(methylamino)carbonyl]phenyl}-1-(3-chloropyridin-2-yl)-1H-pyrazole-5-carboxamide]
- pest or weed control at 4 g/ha [1, 14]: 50%
- pest or weed control at 0.8 g/ha [2, 6]: 0%
- pest or weed control at 0.032 g/ha [2, 7]: 0%
- Destruction in % after 6 d ([3]; 0.16 g/ha): 33%

Compound: CC(C)c1cc(Oc2ccccc2)cc(C(C)C)c1NC(=S)NC(C)(C)C [Diafenthiuron, diafenthiuron]
- Destruction in % after 2 d ([4]; 100 g/ha): 0%
- Destruction in % after 6 d ([4]; 100 g/ha): 0%
- pest or weed control at 4 g/ha [2, 6]: 0%

Compound: CC(C)(C)c1ccc(CSc2cnn(C(C)(C)C)c(=O)c2Cl)cc1 [pyridaben]
- Destruction in % after 2 d ([4]; 20 g/ha): 50%
- pest or weed control at 100 g/ha [1, 5]: 0%

Compound: CCc1nn(C)c(C(=O)NCc2ccc(C(C)(C)C)cc2)c1Cl [tebufenpyrad]
- Destruction in % after 2 d ([4]; 4 g/ha): 10%
- Destruction in % after 2 d ([1]; 100 g/ha, Table B third series): 50%

Compound: COCCOC(=O)C(C#N)(C(=O)c1ccccc1C(F)(F)F)c1ccc(C(C)(C)C)cc1 (stereo not drawn) [Cyflumetofen, 2-methoxyethyl alpha-cyano-alpha-[4-(1,1,dimethylethyl)phenyl]-beta-oxo-2-(trifluoromethyl)benzenepropanoate]
- Destruction in % after 6 d ([4]; 4 g/ha): 70%
- pest or weed control at 100 g/ha [1, 5]: 0%
- pest or weed control at 4 g/ha [2, 6]: 0%

Compound: Cc1ccc(/N=C/N(C)/C=N/c2ccc(C)cc2C)c(C)c1 [Amitraz, amitraz]
- pest or weed control at 100 g/ha [1, 5]: 0%
- pest or weed control at 4 g/ha [2, 6]: 0%

Compound: COC(=O)N(C(=O)N1COC2(C(=O)OC)Cc3cc(Cl)ccc3C2=N1)c1ccc(OC(F)(F)F)cc1 (stereo not shown) [Indoxacarb, indoxacarb]
- pest or weed control at 0.8 g/ha [1, 11]: 0%
- pest or weed control at 4 g/ha [1, 14]: 33%
- pest or weed control at 20 g/ha [2, 6]: 0%
- Destruction in % after 6 d ([3]; 0.8 g/ha): 33%
- Destruction in % after 6 d ([3]; 4 g/ha): 83%
